According to patent publication US20240336606A1 (Suzhou Zelgen Biopharmaceuticals Co., Ltd., priority 2020, published 2024):
Structures can show the parent of a compound that is named as a salt.

target: T1, binding of KRAS^G12C to SOS1 (Homo sapiens, UniProt Q07889); assay: Inhibition of the binding of KRAS^G12C to SOS1; conditions: Tag1-SOS1 / Tag2-KRAS^G12C, 2 h incubation at room temperature; read-out: IC50 (nM), inhibitory activity on the binding of KRAS^G12C to SOS1
T1 construct: Tag1 (unspecified)
T1 sequence (Q07889 1-1333): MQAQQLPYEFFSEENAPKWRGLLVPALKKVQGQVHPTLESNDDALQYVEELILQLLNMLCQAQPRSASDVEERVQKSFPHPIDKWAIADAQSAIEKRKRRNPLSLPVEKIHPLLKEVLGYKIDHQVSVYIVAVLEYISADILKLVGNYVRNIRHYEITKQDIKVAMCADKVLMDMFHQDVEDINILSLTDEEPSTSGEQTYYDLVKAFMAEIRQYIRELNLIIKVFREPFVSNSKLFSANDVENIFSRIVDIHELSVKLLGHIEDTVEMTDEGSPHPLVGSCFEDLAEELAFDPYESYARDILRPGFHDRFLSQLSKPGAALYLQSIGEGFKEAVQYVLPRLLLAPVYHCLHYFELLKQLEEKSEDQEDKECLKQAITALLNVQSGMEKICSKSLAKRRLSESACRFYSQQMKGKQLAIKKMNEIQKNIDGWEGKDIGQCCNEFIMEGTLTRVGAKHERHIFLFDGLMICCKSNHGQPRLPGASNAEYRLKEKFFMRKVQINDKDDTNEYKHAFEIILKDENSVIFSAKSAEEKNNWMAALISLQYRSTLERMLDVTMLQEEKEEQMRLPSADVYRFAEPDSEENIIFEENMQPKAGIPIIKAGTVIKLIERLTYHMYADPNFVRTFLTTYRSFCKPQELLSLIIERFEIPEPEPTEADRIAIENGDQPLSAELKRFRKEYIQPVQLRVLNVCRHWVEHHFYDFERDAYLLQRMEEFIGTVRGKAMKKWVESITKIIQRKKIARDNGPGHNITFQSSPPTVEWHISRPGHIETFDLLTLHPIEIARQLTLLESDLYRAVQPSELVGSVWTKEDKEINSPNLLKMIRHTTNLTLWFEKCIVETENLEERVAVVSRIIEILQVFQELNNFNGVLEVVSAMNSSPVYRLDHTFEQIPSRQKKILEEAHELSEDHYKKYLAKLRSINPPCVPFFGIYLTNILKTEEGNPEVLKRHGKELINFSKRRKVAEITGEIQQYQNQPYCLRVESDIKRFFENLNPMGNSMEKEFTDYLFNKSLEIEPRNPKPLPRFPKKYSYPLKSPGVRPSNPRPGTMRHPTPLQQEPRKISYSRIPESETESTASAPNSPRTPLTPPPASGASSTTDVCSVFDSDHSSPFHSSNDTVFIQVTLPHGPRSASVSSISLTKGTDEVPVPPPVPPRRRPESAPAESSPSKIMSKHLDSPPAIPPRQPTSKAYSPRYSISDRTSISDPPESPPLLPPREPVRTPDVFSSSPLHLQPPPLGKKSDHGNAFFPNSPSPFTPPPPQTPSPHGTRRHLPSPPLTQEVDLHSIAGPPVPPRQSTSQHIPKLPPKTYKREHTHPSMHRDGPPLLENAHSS
Protocol: • (1) Gradient dilution of the test compounds: 10 mM mother solution (dissolved in 100% DMSO) was added to a 384-well test plate, the final content of DMSO being 0.25%.
(2) 5 μL of Tag1-SOS1 solution was added to the test plate, and 5 μL of dilution buffer was added to the control group.
(3) 5 μL of Tag2-KRAS^G12C solution was added to the test plate.
(4) 10 μL of Anti-Tag1-Tb3+ and Anti-Tag2-XL665 detection solution were added to the test plate. The plate was centrifuged at 1000 rpm for 1 min and incubated at room temperature for 2 h.
(6) The IC50 values for the compounds were finally calculated using GraphPad Prism software, and a curve was fit and plotted.
The inhibitory activity of the compounds of the examples of the present invention on the binding of KRAS^G12C enzyme to SOS1 is shown in Table 1.

| IC50 [nM] | SMILES |
| --- | --- |
| 5.6 | COCCOc1cc2c(N[C@H](C)c3cc(N)cc(C(F)(F)F)c3)nc(C)nc2cc1OC [Example 42, (R)—N-(1-(3-Amino-5-(trifluoromethyl)phenyl)ethyl)-7-methoxy-6-(2-methoxyethoxy)-2-me thylquinazolin-4-amine] |
| 314 | COCCOc1cc2c(N[C@@H](C)c3cccc(C(F)(F)C(C)(C)O)c3F)nc(C)nc2cc1OC [Example 71, (S)-1,1-Difluoro-1-(2-fluoro-3-(1-((7-methoxy-6-(2-methoxyethoxy)-2-methylquinazolin-4-yl)amino)ethyl)phenyl)-2-methylpropan-2-ol formate] |
| 7.3 | COc1cc2nc(C)nc(N[C@H](C)c3cc(N)cc(C(F)(F)F)c3)c2cc1OCC1(C(C)OC)CC1 (single isomer, unassigned) [Example 65B] |
| 4.7 | COCC(COC)Oc1cc2c(N[C@H](C)c3cc(N)cc(C(F)(F)F)c3)nc(C)nc2cc1OC [Example 59, (R)—N-(1-(3-Amino-5-(trifluoromethyl)phenyl)ethyl)-6-((1,3-dimethoxypropan-2-yl)oxy)-7-methoxy-2-methylquinazolin-4-amine] |
| 121 | COc1cc2nc(C)nc(N[C@H](C)c3cccc(C(F)(F)F)c3F)c2cc1OC[C@@H]1CCCN1S(C)(=O)=O [Example 20, N—((R)-1-(2-fluoro-3-(trifluoromethyl)phenyl)ethyl)-7-methoxy-2-methyl-6-(((S)-1-(methylsulfonyl)pyrrolidin-2-yl)methoxy)quinazolin-4-amine] |
| 18 | COCCOc1cc2c(N[C@H](C)c3cccc(S(N)(=O)=O)c3)nc(C)nc2cc1OC [Example 84, (R)-3-(1-((7-Methoxy-6-(2-methoxyethoxy)-2-methylquinazolin-4-yl)amino)ethyl)benzenes ulfonamide] |
| 3.9 | COc1cc2nc(C)nc(N[C@H](C)c3cccc(C(F)(F)C(C)(C)O)c3F)c2cc1OC[C@@H]1CN(C)CCO1 [Example 25] |
| 13 | COc1cc2nc(C)nc(N[C@H](C)c3cc(N)cc(C(F)(F)F)c3)c2cc1OC[C@@H]1CCC(=O)N1C [Example 6, (S)-5-(((4-(((R)-1-(3-amino-5-(trifluoromethyl)phenyl)ethyl)amino)-7-methoxy-2-methylquinazolin-6-yl)oxy)methyl)-1-methylpyrrolin-2-one] |
| 16 | COc1cc2nc(C)nc(N[C@H](C)c3cc(N)cc(C(F)(F)F)c3)c2cc1OC[C@@H]1CCCN1C(C)=O [Example 14] |
| 7.4 | COc1cc2nc(C)nc(N[C@H](C)c3cc(N)cc(C(F)(F)F)c3)c2cc1OC[C@H](C)OC [Example 47] |
| 31 | COc1cc2nc(C)nc(N[C@H](C)c3cc(N)cc(C(F)(F)F)c3)c2cc1OC[C@@H]1CCCN1S(C)(=O)=O [Example 32, N—((R)-1-(3-amino-5-(trifluoromethyl)phenyl)ethyl)-7-methoxy-2-methyl-6-(((S)-1-(methylsulfonyl)pyrrolidin-2-yl)methoxy)quinazolin-4-amine] |
| 12 | COCC1(C(C)Oc2cc3c(N[C@H](C)c4cc(N)cc(C(F)(F)F)c4)nc(C)nc3cc2OC)CC1 (stereo partly drawn) [Example 63, N—((R)-1-(3-Amino-5-(trifluoromethyl)phenyl)ethyl)-7-methoxy-6-(1-(1-(methoxymethyl)cyclopropyl)ethoxy)-2-methylquinazolin-4-amine] |
| 9.4 | COc1cc2nc(C)nc(N[C@H](C)c3cccc(C(F)(F)C(C)(C)O)c3F)c2cc1OCCN(C)CC1CC(F)(F)C1 [Example 19] |
| 24 | COCCOc1cc2c(N[C@H](C)c3cc(C(F)(F)F)cc(N)n3)nc(C)nc2cc1OC [Example 51, (R)—N-(1-(6-Amino-4-(trifluoromethyl)pyridin-2-yl)ethyl)-7-methoxy-6-(2-methoxyethoxy)-2-methylquinazolin-4-amine] |

| SMILES | IC50 [nM] |
| --- | --- |
| COc1cc2nc(C)nc(N[C@H](C)c3cc(N)cc(C(F)(F)F)c3)c2cc1OCCOC1(C)CCC1 [Example 64, (R)—N-(1-(3-Amino-5-(trifluoromethyl)phenyl)ethyl)-7-methoxy-2-methyl-6-(2-(1-methylcyclobutoxy)ethoxy)quinazolin-4-amine] | 8.7 |
